Reference: publication PMC6669961, “Design and Optimization of Thioglycosyl–naphthalimides as Efficient Inhibitors Against Human O-GlcNAcase” (Frontiers in Chemistry, 2019)
Like-named read-outs stand apart in the source and are kept apart here. Blank lines part the entries; values can stand above or below the compound they belong to.

Assays:
hOGA = details: read-out: Ki against hOGA, cited from earlier work
HsHexB = details: read-out: Ki against HsHexB, cited from earlier work
human O-GlcNAcase (hOGA) = target: T1, human O-GlcNAcase (hOGA) (Homo sapiens, UniProt O60502); experiment: Enzyme inhibitory activity test against hOGA (4-MU-GlcNAc substrate, end-point fluorescence; Dixon plots for Ki); assay type: biochemical; details: pH 6.5
T1 construct: made in house; host or cells: Escherichia coli BL21(DE3)
T1 sequence (O60502 1-916): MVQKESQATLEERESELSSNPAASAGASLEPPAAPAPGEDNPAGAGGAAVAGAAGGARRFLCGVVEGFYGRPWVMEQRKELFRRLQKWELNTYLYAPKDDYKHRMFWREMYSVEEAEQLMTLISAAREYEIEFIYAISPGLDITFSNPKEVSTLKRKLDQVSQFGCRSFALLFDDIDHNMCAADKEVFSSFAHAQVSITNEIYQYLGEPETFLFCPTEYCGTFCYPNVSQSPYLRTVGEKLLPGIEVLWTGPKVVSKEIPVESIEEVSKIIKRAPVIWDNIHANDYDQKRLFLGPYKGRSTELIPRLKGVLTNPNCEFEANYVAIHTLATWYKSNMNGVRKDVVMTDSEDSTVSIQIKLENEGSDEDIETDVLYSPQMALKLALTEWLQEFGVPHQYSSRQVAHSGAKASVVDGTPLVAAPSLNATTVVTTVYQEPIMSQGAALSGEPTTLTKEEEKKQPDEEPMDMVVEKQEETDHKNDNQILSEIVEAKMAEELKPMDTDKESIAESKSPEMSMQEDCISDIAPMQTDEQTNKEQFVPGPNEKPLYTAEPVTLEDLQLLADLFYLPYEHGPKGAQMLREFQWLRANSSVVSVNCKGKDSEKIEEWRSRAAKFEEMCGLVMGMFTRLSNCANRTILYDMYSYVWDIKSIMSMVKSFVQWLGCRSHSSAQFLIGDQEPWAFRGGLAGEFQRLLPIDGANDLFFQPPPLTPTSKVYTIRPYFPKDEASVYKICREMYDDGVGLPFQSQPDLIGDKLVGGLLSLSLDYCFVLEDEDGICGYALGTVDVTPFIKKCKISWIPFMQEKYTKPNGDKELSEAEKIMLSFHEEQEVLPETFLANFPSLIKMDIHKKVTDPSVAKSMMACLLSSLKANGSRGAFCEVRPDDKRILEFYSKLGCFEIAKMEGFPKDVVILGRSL
Experimental: (§1) Human O-GlcNAcase (hOGA) was expressed in Escherichia coli BL21(DE3) and purified according to previous methods (Kong et al., [2016]). Human β-N-acetylhexosaminidase B (HsHexB) was overexpressed in Pichia pastoris and then purified as described previously (Shen et al., [2018a]).
(§2) All target compounds were evaluated for their inhibitory activities against hOGA and HsHexB in end-point experiments. 4-Methylumbelliferyl N-acetyl-β-D-glucosaminide (4-MU-GlcNAc) was used as substrate. In a final assay volume of 100 μL, inhibitor and substrate (40 μM) were mixed with Britton-Robinson buffer (hOGA, pH 6.5; HsHexB, pH 4.5) and enzyme; then, the assay components were incubated at 30°C for 30 min. Subsequently, the enzymatic reaction was terminated by the addition of 100 μL 0.5 M Na2CO3 solution. The fluorescence of the liberated 4-methylumbelliferone (Mu) was quantified at an excitation of 366 nm and emission of 445 nm on a Varioskan Flash microplate reader (Thermo Fisher Scientific, USA). To determine the inhibition constant (Ki), Dixon plots were performed by changing the concentration of the 4-MU-GlcNAc (40, 20, and 10 μM).

[1] = target: T2, human β-N-acetylhexosaminidase B (HsHexB) (Homo sapiens, UniProt P07686); experiment: Enzyme inhibitory activity test against HsHexB (4-MU-GlcNAc substrate, end-point fluorescence; Dixon plots for Ki); assay type: biochemical; details: pH 4.5
T2 construct: made in house; host or cells: Pichia pastoris
T2 sequence (P07686 122-556): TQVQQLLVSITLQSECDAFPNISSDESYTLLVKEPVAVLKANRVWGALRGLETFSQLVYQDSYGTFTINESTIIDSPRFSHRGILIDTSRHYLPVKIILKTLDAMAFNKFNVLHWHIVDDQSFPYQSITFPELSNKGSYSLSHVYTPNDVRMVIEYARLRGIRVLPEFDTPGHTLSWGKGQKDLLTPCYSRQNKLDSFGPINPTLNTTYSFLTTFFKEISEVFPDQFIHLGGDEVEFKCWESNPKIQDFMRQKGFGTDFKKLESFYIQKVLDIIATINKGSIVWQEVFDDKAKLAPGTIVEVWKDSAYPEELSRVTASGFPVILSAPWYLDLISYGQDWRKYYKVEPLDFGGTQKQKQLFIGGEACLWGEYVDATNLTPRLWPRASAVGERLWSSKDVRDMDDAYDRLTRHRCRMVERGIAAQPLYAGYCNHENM
Experimental: as §1, §2

HsHex = details: read-out: Ki against HsHex, cited from earlier work
[2] = lead compounds 15b (1) and 5c (2) of previous research, ref Chen et al., 2018, Shen et al., 2018a
[3] = Dixon plots, 4-MU-GlcNAc 40, 20, 10 μM
[4] = 13r (3) of previous research, ref Shen et al., 2018b
[5] = GlcNAcstatin C, ref Dorfmueller et al., 2009
[6] = Gluco-nagstatin, ref Terinek and Vasella, 2005

Structure (SMILES): CC(=O)OC[C@H]1O[C@@H](SCC(=O)NCCCN2C(=O)c3cccc4c(N5CCCCC5)ccc(c34)C2=O)[C@@](O)(NC(=O)c2ccc(F)cc2)[C@@H](OC(C)=O)[C@@H]1OC(C)=O [Compound 1]
Ki (hOGA; [2]): 3.8 µM | Ki (HsHexB; [2]): 30.4 µM

inhibition at 100 µM (human O-GlcNAcase (hOGA); 100 μM inhibitor, 40 μM 4-MU-GlcNAc, 30°C, 30 min, read-out: Inhibition rate at 100 μM (%) hOGA): 97.6 ± 0.9% | Ki (human O-GlcNAcase (hOGA); [3]): 3.46 ± 0.11 µM | inhibition at 100 µM ([1]; 100 μM inhibitor, 40 μM 4-MU-GlcNAc, 30°C, 30 min, read-out: Inhibition rate at 100 μM (%) HsHexB): 45.5 ± 0.5% | Ki [1, 3]: > 100 µM
Structure (SMILES): CC(=O)N[C@@H]1[C@@H](O)[C@H](O)[C@@H](CO)O[C@H]1SCC(=O)NCCCN1C(=O)c2cccc3cccc(c23)C1=O [Compound 2, reference compound]
Ki (hOGA; [2]): 3.46 µM | Ki (HsHexB; [2]): > 100 µM

Structure (SMILES): CC(=O)N[C@@H]1[C@@H](O)[C@H](O)[C@@H](CO)O[C@H]1SCCNCCCN1C(=O)c2cccc3c(N4CCCCC4)ccc(c23)C1=O [Compound 3]
Ki (hOGA; [4]): 0.6 µM | Ki (HsHexB; [4]): > 100 µM

Structure (SMILES): CC(C)C(=O)N[C@H]1c2nc(CCc3ccccc3)cn2[C@H](CO)[C@@H](O)[C@@H]1O [GlcNAcstatin C]
Ki (hOGA; [5]): 0.0044 µM | Ki (HsHex; [5]): 0.55 µM

Structure (SMILES): CC(=O)N[C@H]1c2nc(CC(=O)O)cn2[C@H](CO)[C@@H](O)[C@@H]1O [Gluco-nagstatin]
Ki (hOGA; [6]): 0.42 µM | Ki (HsHex; [6]): 0.01 µM

Structure (SMILES): CCNC1=N[C@@H]2[C@@H](O)[C@H](O)[C@@H](CO)O[C@@H]2S1 [Thiamet-G]
Ki (HsHex; Thiamet-G, ref Yuzwa et al., 2008): 750 µM
